Experiments:
[1] = test system: endothelial progenitor cells (EPCs); conditions: cited from earlier work
[2] = test system: primary SCs; assay: Primary SCs from normo-perfused muscles subjected to in vitro ischemia; type: cell-based, mice
Procedure: (§1) SCs were isolated from gastrocnemius muscles of C57BL/6J wild type mice subjected to ischemia or C57BL/6J mice lacking the GHSR1a and ghrelin genes (10 mice, kind gift of Professor M. Tschöp)^39. To obtain SCs, muscle samples were subjected to enzymatic digestion as described^45. In selected experiments, SCs were recovered from normo-perfused muscles and subjected to in-vitro ischemia in presence of saline, AG (1 μmol/L) or UAG (1 μmol/L). In-vitro ischemia was induced by incubating cells in DMEM+2% FCS at 5% CO2/95% N2 humidified atmosphere, yielding 1% O2 concentrations for 24 h^18. The in-vitro ischemia was also performed in the presence of SB202190 (1 μmol/L).
(§2) SC cell-cycle progression was evaluated by evaluating the percentage of PCNA-positive cells or by FACS analysis as previously described^46. The percentage of cells in each cell cycle phase was determined by ModFit LT software (Verity Software House. Inc, topsham, ME, USA). Celss proliferation was also assayed by evaluating the percentage of PCNA-positive cells by FACS analysis.
(§3) Cells were lysed and protein detection was obtained as previously described^47. Cells were lysed (50 mmol/L Tris HCl [pH 8.3], 1% Triton X-100, 10 mmol/L PMSF, 100 U/ml aprotinin, 10 μmol/L leupeptin) and protein concentrations were obtained as previously described^47. […] Densitometric analysis was used to calculate the differences in the fold induction of protein levels and normalized to tubulin, a actin or p38MAPK content. Values are reported as relative amount
(§4) Intracellular ROS production was evaluated using DCF-DA (5-(and-6)-carboxy-2′,7′-dichlorofluorescein diacetate, […] final concentration) (Molecular Probe, Invitrogen) assay as previously described^23. The formation of TBARS was determined in muscles using the OXI-TEK kit (ZeptoMetrix Corp.) and a luminescence spectrometer (Bio-Rad Laboratories, Hercules, Calif.) with excitation set at 530 nm, emission at 550 nm to measure in-vivo oxidative stress levels^33.
(§5) Total RNA was isolated using TRIzol reagent (Invitrogen) from SCs recovered from muscles of treated animals or from SCs subjected to in-vitro ischemia. miR-221/222 expression was evaluated by qRT-PCR as previously described^48. Loss-of-function experiments were performed in SCs transfected for 48 h with anti-miRNA negative control, anti-miR-221/222 antagonists (Applied Biosystem, Foxter Cyto CA, USA), according to the manufacturer's instructions^48.
To obtain SOD-2 inactivation, SCs were transiently transfected with siRNA for SOD-2 or with duplex siRNAs (Qiagen, Valencia, Calif., USA) as previously described^44. Transfection was performed according to the manufacturer's instructions. Whole cell extracts were processed 48 h after transfection. Cell viability was evaluated at the end of each experiment. […]

[3] = test system: C57BL/6J mice; assay: Toxic damage induced by 1% barium chloride (BaCl2) in gastrocnemius muscle; type: in vivo; conditions: 1% BaCl2 injected into hind limb
Procedure: (§6) Male C57BL/6J mice (Charles River Lab., Wilmington, Mass., USA) were anesthetized and unilateral hind limb ischemia was induced as described^42. The normo-perfused contralateral limb of each mouse was used as an internal control. After hind-limb ischemia, animals (18 mice per group) were treated by intra-peritoneal injection daily from 0 to day 21 with either saline, AG ([…]) or UAG ([…]). In selected experiments, mice received intramuscular injections of pre-miR oligonucleotides (5 mice/group). To induce toxic damage, 100 μl of 1% barium chloride (BaCl2, Sigma Aldrich) was injected unilaterally into the hind limb (9 mice). Mice were treated according to European Guidelines and policies as approved by the University of Turin Ethical Committee.
(§7) Gastrocnemius muscle sections from ischemic or normo-perfused limbs were stained with hematoxylin and eosin for histological analysis. The proportion of fibers with central nuclei (regenerating fibers) was measured by MetaMorph software (Life Sciences Research Imaging Systems) in the injured area and the cross-sectional areas of the fibers in the injured and non-injured areas. For IF analysis, muscle sections were processed as described previously^44. The number of cells expressing the indicated markers or CD31 positive vessels was evaluated as previously described^34.

[4] = test system: SCs from double KO mice; assay: SCs from double KO mice (lacking GHSR1a and ghrelin genes) subjected to in vitro ischemia; type: cell-based
Procedure: as §1, §2, §3, §4

[5] = molecular target: GHSR-1a (Homo sapiens, UniProt Q92847); conditions: cited from earlier work
Chain of GHSR-1a (Q92847 whole entry): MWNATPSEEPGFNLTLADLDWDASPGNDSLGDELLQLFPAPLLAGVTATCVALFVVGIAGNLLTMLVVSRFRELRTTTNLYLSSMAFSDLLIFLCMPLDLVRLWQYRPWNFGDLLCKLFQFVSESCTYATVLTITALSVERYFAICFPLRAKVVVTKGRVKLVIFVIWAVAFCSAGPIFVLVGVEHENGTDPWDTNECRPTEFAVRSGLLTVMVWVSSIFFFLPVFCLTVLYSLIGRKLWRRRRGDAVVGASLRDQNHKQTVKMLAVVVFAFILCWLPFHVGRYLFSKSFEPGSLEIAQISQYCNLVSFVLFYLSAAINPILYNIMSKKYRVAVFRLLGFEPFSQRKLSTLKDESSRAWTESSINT

[6] = test system: C57BL/6J mice; assay: Murine hind-limb ischemia model (foot damage score, histology, IF, TBARS); type: in vivo
Procedure: as §6
Semiquantitative estimation (by repeated measures analyzed with ANOVA and Newman-Keuls Multiple Comparison test) of foot damage was performed serially using the following classification: 3=dragging of foot (foot necrosis), 2=no dragging but no plantar flexion (foot damage), 1=plantar flexion but no toe flexion (toe damage), and 0=flexing the toes to resist gentle traction on the tail (no damage)^43.
as §7, §4

[7] = test system: C2C12 mouse muscular cell line; assay: ROS production (DCF-DA) in C2C12 cells subjected to oxidative stress; type: cell-based; conditions: oxidative stress by hypoxia, AGEs, hyperglycemia or H2O2; 1 μmol/L
Procedure: Kinetic analysis of ROS production was evaluated by using DCF-DA (5-(and-6)-carboxy-2′,7′-dichlorofluorescein diacetate, 0.5 μmol/L final concentration) (Molecular Probe, Invitrogen) assay. C2C12 cells were cultured with 400 μg/ml Advanced Glycated End-product (AGE) or 25 mM glucose (high glucose HG) for 48 h, H2O2 (100 μM) for 2 h. In parallel experiments C2C12 cells were subjected to hypoxia (DMEM+2% FCS in a 5% CO2-95% N2 humidified atmosphere, yielding to 1% O2 concentrations for 24 h). UAG (1 μmol/L) AZP 531 (1 μmol/L) or AZP-502 (1 μmol/L) was added where indicated.

[8] = test system: satellite cells (SCs); assay: SCs recovered from ischemic muscles of treated mice (count, Western blot, DCF-DA, qRT-PCR); type: in vivo
Procedure: as §6, §1, §3, §4, §5

[9] = test system: healthy volunteers; conditions: administered concomitantly in healthy volunteers; cited from earlier work
[10] = test system: GH secretion; conditions: cited from earlier work
[11] = SOD-2 silenced using siRNA, in vitro ischemia
[12] = in vitro ischemia 1% O2 24 h, 1 μmol/L

Gly-Ser-Ser-Phe-Leu-Ser-Pro-Glu-His-Gln-Arg-Val-Gln-Gln-Arg-Lys-Glu-Ser-Lys-Lys-Pro-Pro-Ala-Lys-Leu-Gln-Pro-Arg (GSSFLSPEHQRVQQRKESKKPPAKLQPR; listed as Homo sapiens) [UAG]
protection of EPCs from oxidative stress (ROS generation) [1]: only UAG protects endothelial progenitor cells (EPCs) from oxidative stress | cell-cycle entry or expression of SOD-2, Pax-7, MyoD, or myogenin ([2]; SCs transfected with anti-miR-221/222 antago-miRs (data not shown)): no longer had any effect | p-p38/MAPK levels ([2]; SCs transfected with anti-miR-221/222 antago-miRs, UAG (data not shown)): p-p38/MAPK levels were reduced | UAG-induced miR-221/222 expression ([2]; SOD-2 knock-down, in vitro ischemia): prevents UAG-induced miR-221/222 expression | cell-cycle progression [2, 11]: did not undergo cell-cycle progression | p38/MAPK phosphorylation [2, 11]: did not induce p38/MAPK phosphorylation | protection of SCs against ROS generation [2, 11]: did not protect SCs against ROS generation | expression of Pax-7, MyoD [2, 12]: induced expression | expression of myogenin [2, 12]: induced expression | levels of pp38/MAPK [2, 12]: increased levels | ROS production ([2]; in vitro ischemia, DCF-DA): ROS production was decreased | PCNA expression ([2]; in vitro ischemia, FACS): increased PCNA expression | number of cells in S phase ([2]; in vitro ischemia, FACS): increased | SOD-2 expression ([2]; in vitro ischemia, Western blot): SOD-2 expression increased | regeneration of skeletal muscle after BaCl2 (ROS-independent damage) [3]: regeneration of skeletal muscle was no longer observed | SC cell-cycle progression [4]: only UAG promoted SC cell-cycle progression | SOD-2 expression [4]: induced SOD-2 expression | p-p38/MAPK, Pax-7, MyoD, Myf5 and myogenin expression [4]: induced | protection of SCs from ROS generation ([4]; DCF-DA): protected SCs from ROS generation | binding to GHSR-1a [5]: fails to bind | number of Pax-7/MyoD+ cells in ischemic muscles ([6]; day 7): increased number of Pax-7/MyoD+ cells | Pax-7/MyoD+ cells in ischemic muscles ([6]; day 21): scattered Pax-7/MyoD+ cells were still present | number of SOD-2/Pax-7+ cells in ischemic muscle ([6]; double immunostaining, day 7): increased number of SOD-2/Pax-7+ cells | number of CD68-positive inflammatory cells ([6]; ischemic muscle): reduced number of CD68-positive inflammatory cells | number of regenerating myofibers in gastrocnemius muscles ([6]; ischemic muscle): increased number of regenerating myofibers | number of myogenin-positive cells in ischemic muscles ([6]; ischemic muscles): increased number of myogenin-positive cells | number of functional vessels in ischemic muscles ([6]; ischemic muscles, compared to the other groups): larger number of functional vessels | capillary density, ischemic vs contralateral control muscle of the same animals ([6]; ischemic vs normo-perfused muscle): no such differences were observed | protection against ischemia-induced damage (in vivo effects) ([6]; overall conclusion): appears to protect against ischemia-induced damage | foot damage (functional score) ([6]; unilateral hind-limb ischemia, i.p. daily from day 0 to day 21, vs saline): damage was significantly higher in saline- and AG-treated groups than in the UAG-treated group | protective effect on C2C12 cells against oxidative stress [7]: have a protective effect | ROS production in SCs from treated mice ([8]; DCF-DA assay): lower | levels of phospho(p)-p38/MAPK protein in SCs ([8]; SCs from treated mice, Western blot): found to be higher | SOD-2 protein expression in SCs from treated mice ([8]; Western blot): higher | levels of p57kip2 protein in SCs from treated mice ([8]; Western blot): reduced | number of Pax-7/MyoD/Myf5+ SCs isolated and counted ex vivo ([8]; ischemic muscles of treated mice): significantly increased number | expression of miR-221 and miR-222 in SCs recovered from muscles of treated mice ([8]; qRT-PCR, compared to controls): significantly increased | hyperglycemic effects of ghrelin [9]: prevent the hyperglycemic effects of ghrelin | effect on GH secretion [10]: no physiological effect on GH secretion

From patent US20140378380A1, “USE OF UNACYLATED GHRELIN, FRAGMENTS AND ANALOGS THEREOF AS ANTIOXIDANT” (Alizé Pharma SAS, priority 2013, published 2014)
